The text below walks through data of BindingDB's records for doi:10.1016/j.jmb.2007.01.004 (Astex Therapeutics, 2007).

In the assay the target is cAMP-dependent protein kinase catalytic subunit alpha (Bos taurus, UniProt P00517). Nature of the assay: PKA In Vitro Enzyme Assay. To be noted: pH 7.2; 22 °C. Here is the method: The recombinant alpha catalytic subunit of bovine PKA was assayed with a peptide substrate and test compound in the presence of 40 uM ATP/ [gamma-33P]ATP in 96-well plates. […] IC50 values were determined from an eight-point concentration range run in duplicate and calculated in GraphPad Prism 4.00.

Broadly, the IC50 is the concentration at which inhibition is half-maximal. Read a low IC50 as greater potency.

On to `Cc1n[nH]c2ccc(-c3cncc(OC[C@@H](N)Cc4c[nH]c5ccccc45)c3)cc12` [5-{5-[(2S)-2-amino-3-(1H-indol-3-yl)propoxy]pyridin-3-yl}-3-methyl-1H-indazole], for which the IC50 was 27 nM.
